Read-outs that look alike come from different tables or passages of the source.
Assay: Pharmacokinetic analysis of RA in an SH-SY5Y xenograft model (retinoid concentrations in plasma, liver, tumour by LC/MS)
Assay type: in vivo, CD-1 nude mice
Conditions: for % Total retinoids, tumour, 0.5 h / % Total retinoids, tumour, 2 h / % Total retinoids, tumour, 6 h / % Total retinoids, liver, 0.5 h / % Total retinoids, liver, 2 h / % Total retinoids, liver, 6 h / % Total retinoids, plasma, 0.5 h / % Total retinoids, plasma, 2 h / % Total retinoids, plasma, 6 h / concentration at 0.5 h / concentration at 2 h / concentration at 6 h: label = retinoid measured; for concentration at 0.5 h / concentration at 2 h / concentration at 6 h: po
Procedure: All in vivo experiments were approved by the relevant institutional animal welfare committees, and performed according to national law. Female athymic nude mice (CD-1 nu/nu, Charles River) used for antitumour studies were maintained and handled in isolators, under specific pathogen-free conditions, at 24°C with a 12 h light, 12 h dark cycle. Tumours were generated by implantation of SH-SY5Y cells subcutaneously (s.c.) into one flank of CD-1 nude mice (1 × 10^7 cells per animal).
Treatments began when the tumours were between 7 and 10 mm in length and breadth. Retinoids and R116010 were initially dissolved in DMSO before 10- or 20-fold dilutions in PBS, respectively. For pharmacokinetic studies, the animals were dosed with ATRA or 13cisRA (each 100 mg kg^−1) orally for 0.5, 2 and 6 h. For metabolism studies, animals were treated with R116010 orally at doses of 1.25 or 2.5 mg kg^−1 either immediately before the retinoid being studied, or up to three times (over 1–2 days) before dosing with the retinoid. At termination of experiments, animals were bled under terminal anaesthesia then killed by cervical dislocation. Plasma was immediately removed from the blood by centrifugation at 1000 g for 5 min and snap-frozen in liquid nitrogen in amber Eppendorfs. Tumour and liver samples were removed and snap-frozen, wrapped in foil, in liquid nitrogen.
Cell pellets obtained from retinoid incubations were re-suspended in 2 ml cell culture medium and disrupted by passing the samples several times through a syringe and hypodermic needle (25G × 1 inches, 0.5 mm × 25 mm; Terumo, Somerset, NJ, USA). Tumour and liver tissues were re-suspended in PBS and homogenised (T25 homogeniser, IKA Laboratories, Staufen, Germany). Retinoids were extracted as described previously ([Veal et al, 2002]; [Armstrong et al, 2005b]). Samples were reconstituted in 200 μl mobile phase A (n-hexane:dichloromethane:propan-2-ol, 400 : 1 : 0.27) and analysed by normal-phase HPLC as described previously ([Veal et al, 2002]). For LC/MS analysis, samples were reconstituted in 200 μl mobile phase A (50% acetonitrile, 50% (0.2%) acetic acid, v v^−1).
Resolution of retinoids was performed with a Luna C18(2) column (3 μm, 50 mm × 2 mm) using a Perkin Elmer LC (Beaconsfield, UK) system, consisting of a vacuum degasser, two series 200 pumps, a thermostatically controlled series 200 autosampler and a Waters 2487 UV absorbance detector. Retinoic isomers and metabolites were separated by gradient reversed-phase chromatography. An injection volume of 20 μl with a flow rate of 0.2 ml min^−1 was used with mobile phase A (50% acetonitrile, 50% (0.2%) acetic acid, v v^−1) and mobile phase B (acetonitrile, 0.1% acetic acid, v v^−1). Linear gradients were employed between the specified times as follows: 0, 100% A; 5 min, 100% A; 15 min, 100% B; 20 min, 100% B; 23 min, 100% A; 35 min, 100% A. An Applied Biosystems (Warrington, UK) API-2000 LC/MS/MS triple Q (quadrupole) mass spectrometer with electrospray ionisation source, controlled by Analyst software, was operated in single quadrupole negative mode for the detection of compounds.

[1] = after 13cisRA 100 mg kg^−1 oral, SH-SY5Y tumour
[2] = after 13cisRA 100 mg kg^−1 oral, liver
[3] = after 13cisRA 100 mg kg^−1 oral, plasma
[4] = after ATRA 100 mg kg^−1 oral, SH-SY5Y tumour
[5] = after ATRA 100 mg kg^−1 oral, liver
[6] = after ATRA 100 mg kg^−1 oral, plasma

**Q.** With `CC1=C(/C=C/C(C)=C/C=C/C(C)=C\C(=O)O)C(C)(C)CCC1` [13cisRA, 13-cis-retinoic acid] as the compound, how does the “% Total retinoids, tumour, 0.5 h” value [1] read?
**A.** 90%

**Q.** And the “% Total retinoids, tumour, 2 h” value [1]?
**A.** 81%

**Q.** What about the “% Total retinoids, tumour, 6 h” value [1] of the same compound?
**A.** 49%

**Q.** What about the “% Total retinoids, liver, 0.5 h” value [2] of the same compound?
**A.** 75%

**Q.** What about the “% Total retinoids, liver, 2 h” value [2] of the same compound?
**A.** 58%

**Q.** What about the “% Total retinoids, liver, 6 h” value [2] of the same compound?
**A.** 18%

**Q.** What about the “% Total retinoids, plasma, 0.5 h” value [3] of the same compound?
**A.** 93%

**Q.** And the “% Total retinoids, plasma, 2 h” value [3]?
**A.** 93%

**Q.** And the “% Total retinoids, plasma, 6 h” value [3]?
**A.** 78%

**Q.** And the “Plasma % of total retinoids at all time points” value (after ATRA 100 mg kg^−1, plasma, 0.5, 2 and 6 h)?
**A.** < 10%

**Q.** And the “% Total retinoids, tumour, 0.5 h” value [4]?
**A.** 2%

**Q.** And the “% Total retinoids, tumour, 2 h” value [4]?
**A.** 3%

**Q.** And the “% Total retinoids, tumour, 6 h” value [4]?
**A.** 3%

**Q.** What about the “% Total retinoids, liver, 0.5 h” value [5] of the same compound?
**A.** 11%

**Q.** And the “% Total retinoids, liver, 2 h” value [5]?
**A.** 5%

**Q.** And the “% Total retinoids, liver, 6 h” value [5]?
**A.** 5%

**Q.** What about the “% Total retinoids, plasma, 0.5 h” value [6] of the same compound?
**A.** 5%

**Q.** What about the “% Total retinoids, plasma, 2 h” value [6] of the same compound?
**A.** 6%

**Q.** What about the “% Total retinoids, plasma, 6 h” value [6] of the same compound?
**A.** 8%

**Q.** And the concentration at 0.5 h (female, CD-1 nu/nu (athymic nude), mouse, liver, 100 mg kg^−1, after 13cisRA 100 mg kg^−1 oral, liver, read-out: Liver concentration, 0.5 h)?
**A.** 3770 ± 1050 ng/g

**Q.** And the concentration at 2 h (female, CD-1 nu/nu (athymic nude), mouse, liver, 100 mg kg^−1, after 13cisRA 100 mg kg^−1 oral, liver, read-out: Liver concentration, 2 h)?
**A.** 2330 ± 110 ng/g

**Q.** What about the concentration at 6 h (female, CD-1 nu/nu (athymic nude), mouse, liver, 100 mg kg^−1, after 13cisRA 100 mg kg^−1 oral, liver, read-out: Liver concentration, 6 h) of the same compound?
**A.** 980 ± 120 ng/g

**Q.** And the concentration at 0.5 h (female, CD-1 nu/nu (athymic nude), mouse, liver, 100 mg kg^−1, after ATRA 100 mg kg^−1 oral, liver, read-out: Liver concentration, 0.5 h)?
**A.** 420 ± 300 ng/g

**Q.** And the concentration at 2 h (female, CD-1 nu/nu (athymic nude), mouse, liver, 100 mg kg^−1, after ATRA 100 mg kg^−1 oral, liver, read-out: Liver concentration, 2 h)?
**A.** 400 ± 80 ng/g

**Q.** What about the concentration at 6 h (female, CD-1 nu/nu (athymic nude), mouse, liver, 100 mg kg^−1, after ATRA 100 mg kg^−1 oral, liver, read-out: Liver concentration, 6 h) of the same compound?
**A.** 250 ± 60 ng/g

**Q.** And the concentration at 0.5 h (female, CD-1 nu/nu (athymic nude), mouse, plasma, 100 mg kg^−1, after 13cisRA 100 mg kg^−1 oral, plasma, read-out: Plasma concentration, 0.5 h)?
**A.** 14.2 ± 4.71 µM

**Q.** And the concentration at 2 h (female, CD-1 nu/nu (athymic nude), mouse, plasma, 100 mg kg^−1, after 13cisRA 100 mg kg^−1 oral, plasma, read-out: Plasma concentration, 2 h)?
**A.** 19.1 ± 3.26 µM

**Q.** And the concentration at 6 h (female, CD-1 nu/nu (athymic nude), mouse, plasma, 100 mg kg^−1, after 13cisRA 100 mg kg^−1 oral, plasma, read-out: Plasma concentration, 6 h)?
**A.** 4.69 ± 0.52 µM

**Q.** And the concentration at 0.5 h (female, CD-1 nu/nu (athymic nude), mouse, plasma, 100 mg kg^−1, after ATRA 100 mg kg^−1 oral, plasma, read-out: Plasma concentration, 0.5 h)?
**A.** 0.67 ± 0.55 µM

**Q.** What about the concentration at 2 h (female, CD-1 nu/nu (athymic nude), mouse, plasma, 100 mg kg^−1, after ATRA 100 mg kg^−1 oral, plasma, read-out: Plasma concentration, 2 h) of the same compound?
**A.** 1.55 ± 0.33 µM

**Q.** What about the concentration at 6 h (female, CD-1 nu/nu (athymic nude), mouse, plasma, 100 mg kg^−1, after ATRA 100 mg kg^−1 oral, plasma, read-out: Plasma concentration, 6 h) of the same compound?
**A.** 1.53 ± 0.66 µM

**Q.** And the Tmax (female, CD-1 nu/nu (athymic nude), mouse, plasma, 100 mg kg^−1 oral, sampled at 0.5, 2, 6 h, read-out: Time of peak plasma levels)?
**A.** 2 h

**Q.** And the concentration at 0.5 h (female, CD-1 nu/nu (athymic nude), mouse, tumour (SH-SY5Y xenograft), 100 mg kg^−1, after 13cisRA 100 mg kg^−1 oral, SH-SY5Y tumour, read-out: Tumour concentration, 0.5 h)?
**A.** 2000 ± 670 ng/g

**Q.** What about the concentration at 2 h (female, CD-1 nu/nu (athymic nude), mouse, tumour (SH-SY5Y xenograft), 100 mg kg^−1, after 13cisRA 100 mg kg^−1 oral, SH-SY5Y tumour, read-out: Tumour concentration, 2 h) of the same compound?
**A.** 2120 ± 570 ng/g

**Q.** What about the concentration at 6 h (female, CD-1 nu/nu (athymic nude), mouse, tumour (SH-SY5Y xenograft), 100 mg kg^−1, after 13cisRA 100 mg kg^−1 oral, SH-SY5Y tumour, read-out: Tumour concentration, 6 h) of the same compound?
**A.** 280 ± 40 ng/g

**Q.** And the concentration at 0.5 h (female, CD-1 nu/nu (athymic nude), mouse, tumour (SH-SY5Y xenograft), 100 mg kg^−1, after ATRA 100 mg kg^−1 oral, SH-SY5Y tumour, read-out: Tumour concentration, 0.5 h)?
**A.** 70 ± 70 ng/g

**Q.** And the concentration at 2 h (female, CD-1 nu/nu (athymic nude), mouse, tumour (SH-SY5Y xenograft), 100 mg kg^−1, after ATRA 100 mg kg^−1 oral, SH-SY5Y tumour, read-out: Tumour concentration, 2 h)?
**A.** 280 ± 70 ng/g

**Q.** What about the concentration at 6 h (female, CD-1 nu/nu (athymic nude), mouse, tumour (SH-SY5Y xenograft), 100 mg kg^−1, after ATRA 100 mg kg^−1 oral, SH-SY5Y tumour, read-out: Tumour concentration, 6 h) of the same compound?
**A.** 150 ± 30 ng/g

Reference: publication PMC2359919, “Molecular targeting of retinoic acid metabolism in neuroblastoma: the role of the CYP26 inhibitor R116010 in vitro and in vivo” (British Journal of Cancer, 2007)
